Test results: patent US4540700A, “Treatment of diabetic complications with certain spiro-imidazolidine-diones” (Alcon Laboratories, Inc., priority 1984, dated 1985)

Test system: cataracts in rats
Experiment: prevention or retardation of cataracts in rats fed 30% galactose diet (compound in chow)
Format: in vivo, rat
Details: for condition of rat eyes: 4 and 8 Mg/Kg/day in 30% galactose chow, 32 days; for inhibition of cataract development: 4 and 8 Mg/Kg/day
From the text: The compounds were formulated in ground Purina Rodent Laboratory Chow, Number 5001, containing 30% galactose.
Eighty-four rats were divided into the following seven groups (six treated groups having different compound intake levels and an untreated galactose control) having different compound intake levels as shown in Table IV.
The galactose control group (twelve rats, twenty-four eyes) were fed ground Purina Rodent Laboratory Chow, No. 5001 containing 30% by weight galactose. The six test compound groups (twelve rats, twenty-four eyes per group) were fed the same 30% galactose chow except that the chow was formulated to deliver […] of the indicated test compound (see Table IV).
It is known that young male rats fed a 30% galactose diet (As previously described) will develop lenticular changes within several days which predicatively progress in time irreversibly to cataracts. Aldose reductase inhibitor compounds which are in vivo active will delay or prevent galactose induced cataractogenesis. In this in vivo experiment, the test aldose reductase inhibitor compounds were formulated in the 30% galactose feed to evaluate their in vivo anticataract activity.

O=C1NC(=O)C2(CCOc3ccc(F)cc32)N1 (racemic) [Sarges Racemic, dl-spiro-(6-fluorochroman-4,4'-imidazolidine)-2',5'-dione, reference compound]
Times to Cataract, Mean (4 Mg/Kg/day): 15.68 days
average time to snowflake-like opacities (4 Mg/Kg/day): 15.7 days
condition of rat eyes: developed snowflake-like opacities
time to cataract, days less than at 8 Mg/Kg/day (4 vs 8 Mg/Kg/day, average): 4 days
Times to Cataract, Mean (8 Mg/Kg/day): 19.68 days
average time to snowflake-like opacities (8 Mg/Kg/day): 19.7 days

O=C1NC(=O)C2(N1)c1cc(F)ccc1-c1ccc(F)cc12 [M, Spiro-[2,7-difluorofluoren-9,4'-imidazolidine]-2',5'-dione]
inhibition of cataract development: inhibit cataract development
condition of rat eyes: asymptomatic

O=C1NC(=O)C2(N1)c1ccccc1-c1ccc(F)cc12 (racemic) [Compound L, dl-Spiro(2-fluorofluoren-9,4'-imidazolidine)-2',5'-dione]
inhibition of cataract development: inhibit cataract development
condition of rat eyes: asymptomatic
